Experimental data reported in patent US8765783B2, “Pharmaceutical composition for treatment of disease due to vascular constriction or vasodilation” (Ono Pharmaceuticals Co., Ltd., priority 2002, dated 2014).
Entries after “also recorded” stand apart in the source; their conditions may differ.

What was measured:
[1] = test system: rat basilar artery; test: Vasoconstrictor action of rat basilar artery induced by S1P into cisterna (in vivo); conditions: 10 μg/100 μL/rat, i.c., 30 minutes after S1P into cisterna
From the text: Rat (CD(SD)IGS, male, Charles River Japan Inc., 11 weeks old-13 weeks old, 400-550 g) was anesthetized by injection of urethane (1.2 g/kg, s.c.), incised scalp of occipital for administration of S1P into cisterna and then fixed to dorsal position. Rat was inserted into trachea with catheter and then, cut down with esophagus, and skull at the base of brain was exposed. Under the stereomicroscope, craniotomy was carefully operated with electric drill and scorper forceps. We made basilar artery expose, and it was done in the condition which arachnoid was left, and coating on basilar artery was exfoliated, and could be observed. Observation and image capture of basilar artery were performed using the stereomicroscope (Olympus Optics Inc., SZH-10) and charge-coupled device (CCD) camera (FUJIFILM, HC-2500) connected with it. Macscope (MITANI Corp.) was used as an Image capture software. […] Diameter of basilar artery was measured by selecting from an area having no branch in the center of basilar artery. The diameter was calculated by comparing with the length of micrometer (0.2 mm, 0.01 mm scale) shooted in the same condition. […] The calculation of percentage of basilar artery diameter was calculated by dividing diameter after the S1P administration by a pre-value. […]

[2] = test system: removed rabbit coronary artery; test: Vasoconstrictor action of removed rabbit coronary artery; conditions: removed rabbit coronary artery ring
Protocol: The heart was removed from Male rabbit (NZ White, a bout 2 kg) under anesthesia and immersed into cooled Krebs-Henseleit solution. After that, coronary artery was cut out, heart muscle and fat tissue connected around the heart were removed and ringed samples were made. Samples hung in micro tissue organ bath (MTOB-1: Preimetech Corp.) filled with Krebs-Henseleit solution (37° C.) or magnus tube, they were loaded with about 0.2 g-0.5 g resting tension stabilized for about 60 minutes, and then constrictive movement was recorded on a recorder (linearcoda WR3320: Graphtec Corp.) through strain compression amplifier (AP-601G, Nihon Kohden).

[3] = test system: rat removed basilar artery; test: Vasoconstrictor action of rat removed basilar artery; conditions: 3 μM (FIG. 3, FIG. 4)
Protocol: Basilar arteries were removed from male rat (CD(SD)IGS, male, Charles River Japan, Inc., 8 weeks old-10 weeks old, 350-450 g) and quickly immersed in cooled Krebs-Henseleit solution. Removed basilar arteries were divided by about 3 mm width with ophthalmic scissors and made as ringed samples. Samples hung in micro tissue organ bath (MTOB-1: Preimetech Corp.) filled with Krebs-Henseleit solution (37° C.). They were loaded with about 0.2 g resting tension stabilized for about 60 minutes, and then constrictive movement was recorded on a recorder (linearcoda WR3320: Graphtec Corp.) through strain compression amplifier (AP-601G, Nihon Kohden) from micro tissue organ bath.

[4] = test system: SD rat; test: Increase of rat blood pressure by S1P; assay type: in vivo; conditions: anesthetized male SD rat, intraperitoneally injected
Protocol: Male SD Rat (8 weeks old-10 weeks old) was anesthetized by injection of pentobarbital sodium (50 mg/mL/kg), after midline incision in the cervical region, trachea was exposed by exfoliation of tracheal muscle layer and cannula made of polyethylene was inserted into trachea. Next, catheter made of polyethylene was inserted into the common carotid artery and the common jugular vein. Catheter inserted into the common carotid artery was connected to the piezotransducer and the blood pressure was recorded on the recorder through strain compression amplifier. After the above mentioned operation was finished, in the case of the spinal chord was broken, the spinal chord was broken by insertion of stainless pole into the spinal chord cavity. After the spinal chord was broken, tracheal cannula was immediately connected into the artificial breathing device for small animals and artificial ventilation was performed under the conditions of a ventilatory volume 6 mL/kg and velocity 60 times/min. After then, S1P was administered and we confirmed blood pressure was increased. […] As a result, the compound (3) inhibited the increase of blood pressure by S1P.

[5] = test system: rat dural blood flow; test: Decrease of dural blood flow induced by S1P; assay type: in vivo; conditions: 10 mg/kg through femoral vein; S1P 300 μg/kg into cisterna
From the text: Rat (CD(SD)IGS, male, Charles River Japan Inc., 10 weeks old-13 weeks old, 450-520 g) was anesthetized by injection of urethane (1.2 g/kg, s.c.), placed in the femoral vein with catheter (polyethylene tube SP10; I.D. 0.28 mm, O.D. 0.61 mm: Natsume Seisakusho Co. Ltd.) for compounds administration, and then blood flow to brain through only vertebral artery was made to happen by tying both sides of common carotid arteries. Next, the scalp was cut open and the head region was exposed in order to measure dural blood flow and administer into cisterna. In addition, the trachea was placed with catheter (polyethylene tube; size 7.9: Hibiki) and it connected to the artificial respirator. The measurement of dural blood flow was performed to transmit with 1a ser light to skull using Moon Laser Doppler Imager (Moor LDI) [about 11cm distant from measuring object, about 150 dots both of XY measurement resolution, scanning about 2.8×2.8 cm area (150dots/2.8 cm)]. In addition, measurement condition involved in flux calculation (FLUX; relative value) such as sensitivity -gain etc., was integrated within all experiment. The images of blood flow were captured through the capture software, moor LDI Measurement V3.08, and image data was treated with analyzed software, moor LDI Image Processing V3.08. […]

Cc1nn(C)c2nc(NNC(=O)Nc3cc(Cl)nc(Cl)c3)cc(C(C)C)c12 [compound (3), N-(2,6-dichloro-4-piridinyl)-2-(4-isopropyl-1,3-dimethyl-1H-pyrazolo[3,4-b]pyridin-6-yl)hydrazinecarboxamide]
inhibition of vasoconstrictor action of rat basilar artery by S1P (basilar artery diameter) [1]: inhibited; also recorded: suppression | inhibitory activity on constriction of rabbit coronary artery by S1P [2]: inhibitory activity | inhibitory effect on vasoconstrictor action of rat removed basilar artery by S1P [3]: inhibitory effect; also recorded: suppression | inhibition of the increase of blood pressure by S1P [4]: inhibited | inhibition of decrease of dural blood flow by S1P [5]: inhibited; also recorded: suppression
